Experimental data from patent publication US12570684B2 (UNIVERSITY OF TENNESSEE RESEARCH FOUNDATION, priority 2020, dated 2026).
“Also recorded” adds a separate entry of the source.

What was measured:
[1] = molecular target: T1, AglH (M. jannaschii) (Methanocaldococcus jannaschii, UniProt Q58513); assay: AglH assay; conditions: read-out: IC50 AglH (M. jannaschii)
T1 sequence (Q58513 1-301): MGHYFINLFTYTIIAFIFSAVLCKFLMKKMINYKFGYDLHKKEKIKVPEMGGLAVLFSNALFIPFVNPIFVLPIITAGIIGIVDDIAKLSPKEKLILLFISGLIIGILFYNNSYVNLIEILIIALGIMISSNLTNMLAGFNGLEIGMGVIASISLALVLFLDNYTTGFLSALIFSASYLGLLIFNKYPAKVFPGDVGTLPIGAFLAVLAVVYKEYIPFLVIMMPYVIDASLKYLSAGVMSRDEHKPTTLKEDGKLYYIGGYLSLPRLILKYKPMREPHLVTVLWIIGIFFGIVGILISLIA

[2] = tested on: Myocobacterium tuberculosis H37Rv, Mycobacterium avium 2285, Mycobacterium smegmatis (ATCC607); assay: Antimycobacterial activity (MIC); format: cell-based, Mycobacterium spp.; conditions: M. tuberculosis H37Rv, M. avium 2285, M. smegmatis (ATCC607)
[3] = tested on: DPAGT1 gene; assay: RT-qPCR analyses of DPAGT1 expression level; format: cell-based; conditions: PD002
[4] = tested on: Snail; assay: Immunofluorescence assay using an anti-Snail antibody; format: cell-based
[5] = tested on: HCT-116; assay: MTT cytotoxicity assay; format: cell-based; conditions: 72 h
Method: (§1) Cell lines. The human primary PDAC cell lines PANC-1 (ATCC CRL 1469); Capan-2 (ATCC HTB-80) and metastatic PDAC cell lines Capan-1 (ATCC HTB-79), AsPC-1 (ATCC CRL-1682), L1210 (ATCC CCL-219), KB (ATCC CCL-17), HeLa, SiHa (ATCC HTB-35), HCT-116 (ATCC CCL-247), DLD-1 (ATCC CCL221), hTERT-HPNE (ATCC CRL-4023), Vero (ATCC CCL-81) were purchased from the ATCC. The cell lines were cultured and maintained in the media as recommended by the supplier. The cell lines were regularly tested for mycoplasma contamination and authenticated. In addition to ATCC cell lines, Dr. Glazer's lab generated patient-derived PDAC cell line, PD002. PD002 Cells were maintained and cultured in DMEM medium supplemented with 20% FBS and 100 IU/mL penicillin and incubated at 37° C. with 5% CO2.
(§2) MTT cytotoxicity assay. To study the effect of treatment with DPAGT1 inhibitors on the growth and proliferation of cells, a fixed number of cells (5×10^4 cells/well, 196 μL) were plated in a 96 well plate. Into each well 5 μL of drug concentration was added. After 72 h of incubation with drugs at 37° C., 5% CO2, 10 μL of MTT solution (5 mg/mL in PBS) was added and incubated another 3 h at 37° C., 5% CO2. The medium was removed, and DMSO (200 μL/well) was added. Viability was assessed on the basis of cellular conversion of MTT into a purple formazan product. The absorbance of the colored formazan product was measured at 570 nm by BioTek Synergy HT Spectrophotometer.

[6] = tested on: HPNE; assay: MTT cytotoxicity assay; format: cell-based
Method: as §1, §2

[7] = tested on: Vero; assay: MTT cytotoxicity assay; format: cell-based
Method: as §1, §2

[8] = tested on: L1210; assay: MTT cytotoxicity assay; format: cell-based
Method: as §1, §2

[9] = tested on: SiHa; assay: MTT cytotoxicity assay; format: cell-based; conditions: 72 h
Method: as §1, §2

[10] = tested on: KB; assay: MTT cytotoxicity assay; format: cell-based; conditions: 72 h
Method: as §1, §2

[11] = tested on: PD002; assay: MTT cytotoxicity assay; format: cell-based
Method: as §1, §2

[12] = tested on: DLD-1; assay: MTT cytotoxicity assay; format: cell-based; conditions: 72 h
Method: as §1, §2

[13] = tested on: HCT-116; assay: Scratch (wound healing) assay; format: cell-based; conditions: scratch assays
Method: (§3) Scratch Assay. A confluent monolayer was formed in 24-well plates. The monolayer was scratched by a sterile 200 μL pipette tip and washed with PBS to remove cell debris. Complete medium with CPPB (5) (0, 0.05, 0.1, 0.2 μM) were added and scratched areas were photographed with microscope. The scratched cells were incubated at 37° C., 5% CO2. After 24 h, medium was removed and cells were stained with a 1:1 mixture of crystal violet and PBS for 5 min., washed with PBS twice, and photographed with microscope. Wound areas were measured and recovered areas were calculated.

[14] = tested on: SiHa; assay: Scratch (wound healing) assay; format: cell-based; conditions: 0.2 μM
Method: as §3

[15] = tested on: PD002; assay: Scratch (wound healing) assay; format: cell-based; conditions: 0.2 μM, 24 h; untreated PD002 63%
Method: as §3

[16] = tested on: pancreatic cancer cell lines (Capan-2, PANC-1, and AsPC-1); assay: Scratch (wound healing) assay; format: cell-based, human; conditions: 0.05, 0.1, and 0.2 μM, 24 h
Method: as §3

[17] = tested on: E-cadherin; assay: Immunofluorescent staining of E-cadherin; format: cell-based

Substance: (2S,3S,4S)-2-((1R)-2-Amino-1-((2S,5R)-5-(2,4-dioxo-3,4-dihydropyrimidin-1(2H)-yl)-4-hydroxy-3-methoxytetrahydrofuran-2-yl)-2-oxoethoxy)-3,4-dihydroxy-N-(4-(4-(4-(trifluoromethoxy)-phenyl)piperidin-1-yl)benzyl)-3,4-dihydro-2H-pyran-6-carboxamide [CPPB]
- IC50 [1]: 0.15 µM
- MIC [2]: 6.25 to 12.5 µg/mL
- DPAGT1 gene expression [3]: without significantly decreasing
- Snail expression in pancreatic cancer cells ([4]; PANC-1, AsPC-1, Capan-2, PD002): decreased by the treatment with CPPB in a concentration dependent manner; also recorded: decreased the Snail expression
- Snail expression level in HCT-116 ([4]; between 0.05 and 2.0 μM): not noticeably changed
- IC50 [5]: 15 µM
- IC50 ([6]; MTT, 72 h): > 50 µM
- antiproliferative activity against HPNE ([6]; at 50 μM, normal pancreatic ductal cell): did not show antiproliferative activity
- IC50 ([7]; MTT, 72 h): > 50 µM
- antiproliferative activity against Vero ([7]; at 50 μM, normal kidney cell): did not show antiproliferative activity
- IC50 ([8]; MTT, 72 h): > 50 µM
- antiproliferative activity against L1210 ([8]; at 50 μM): did not show antiproliferative activity
- IC50 [9]: 15 µM
- IC50 [10]: 35 µM
- cell viability of PD002 (MTT reduction assay) ([11]; 50 μM): significantly decreased
- IC50 ([11]; MTT, 72 h): 35 µM
- IC50 [12]: 25 µM
- cell migration of HCT-116 [13]: not inhibited; also recorded: did not inhibit migration
- migration of SiHa [14]: strongly inhibited migration
- wound-healing rate [15]: approximately 20%
- migration of pancreatic cancer cell lines vs PBS control [16]: migrated far less
- E-cadherin expression level in PD002 ([17]; 0.05-0.2 μM): not noticeably changed
- E-cadherin expression level in Panc-1 ([17]; 0.05-0.2 μM): slightly increased
- E-cadherin expression levels of PD002, PANC-1, and HCT-116 ([17]; 0.05-2.0 μM): not changed significantly
